Each structure is given as a SMILES string. Where a name gives a salt, the structure may show the parent alone.

The target in one assay is T1, guinea pig lung membranes (Cavia porcellus, UniProt P30547).
T1 construct: The trachea and lung were removed and homogenized in ice-cold buffer; from tissue; host or cells: guinea pig (male Hartley strain) trachea and lung, crude membrane fraction
T1 sequence (P30547 whole entry): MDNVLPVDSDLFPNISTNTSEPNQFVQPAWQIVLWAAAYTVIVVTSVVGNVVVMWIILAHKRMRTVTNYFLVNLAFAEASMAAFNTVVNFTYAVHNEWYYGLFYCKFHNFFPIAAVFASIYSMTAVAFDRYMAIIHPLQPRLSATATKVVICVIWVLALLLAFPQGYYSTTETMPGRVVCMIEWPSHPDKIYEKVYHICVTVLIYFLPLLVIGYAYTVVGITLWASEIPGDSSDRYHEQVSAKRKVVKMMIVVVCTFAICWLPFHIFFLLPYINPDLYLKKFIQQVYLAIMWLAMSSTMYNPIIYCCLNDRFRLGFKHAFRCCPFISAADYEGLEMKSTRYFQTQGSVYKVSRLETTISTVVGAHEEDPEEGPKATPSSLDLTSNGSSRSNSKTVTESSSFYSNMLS
Nature of the assay: ^3 H-Substance P binding to guinea pig lung membranes. To be noted: at the concentration of 1 μg/ml; read-out: inhibition rate of ^3 H-Substance P binding to guinea pig lung membranes. The procedure: ^3 H-Substance P Binding to Guinea Pig Lung Membranes Test Method
^3 H-Substance P Binding to Guinea Pig Lung Membranes
(a) Crude lung membrane preparation
Male Hartly strain guinea pigs were stunned and bled. The trachea and lung were removed and homogenized in ice-cold buffer (0.25M sucrose, 50 mM Tris-HCl pH 7.5, 0.1 mM EDTA) by using Polytoron (Kinematica). The homogenate was centrifuged (1000×g, 10 minutes) to remove tissue clumps and the supernatant was centrifuges (35000×g, 20 minutes) to yield pellet. The pellet was resuspended in buffer (5 mM Tris-HCl pH 7.5), homogenized with a teflon homogenizer and centrifuged (35000×g, 20 minutes) to yield pellet which was referred to as crude membrane fractions. The obtained pellet was resuspended in buffer (50 mM Tris-HCl pH 7.5) and stored at -70° C. until use.
(b) ^3 H-Substance P binding to preparation membrane
Frozen crude membrane fractions were thawed and resuspended in Medium 1 (50 mM Tris-HCl pH 7.5, 1 mM MnCl2, 0.02% BSA, 2 μg/ml chymostatin, 4 μg/ml leupeptin, 40 μg/ml bacitracin, 10 μM phosphoramidon). ^3 H-Substance P (1 nM) was incubated with 100 μl of the membrane preparations with or without test compounds in Medium 1 at 25° C. for 30 minutes in a final volume of 500 μl. At the end of the incubation period, 5 ml ice-cold 50 mM Tris-HCl buffer was added to each tube and its content was quickly filtered over a Wahtman GF/B glass filter (pretreated with 0.1% polyethylene imine for 3 hours prior to use) under aspiration. Each of the filters was then washed four times with 5 ml of ice-cold buffer (50 mM Tris-HCl pH 7.5). […] All data presented are specific binding defined as that displaceable by 5 μM unlabeled Substance P.
As to `O=C(c1cc(C(F)(F)F)cc(C(F)(F)F)c1)N1CCNC[C@H]1Cc1ccccc1` [Example 7-7], the inhibition at 1 µg/mL was > 90%. On to `O=C(/C=C/c1ccccc1)N1CCN(C(=O)c2cc(C(F)(F)F)cc(C(F)(F)F)c2)[C@H](Cc2c[nH]c3ccccc23)C1` [Example 17-1, (2R)-1-[3,5-Bis(trifluoromethyl)benzoyl]-2-(1H-indol-3-yl-methyl)-4-(trans-cinnamoyl)piperazine], for which the inhibition at 1 µg/mL was > 90%.

With `O=C(/C=C/c1ccc(F)cc1)N1CCN(C(=O)c2cc(C(F)(F)F)cc(C(F)(F)F)c2)[C@H](Cc2c[nH]c3ccccc23)C1` [Example 17-2, (2R)-1-[3,5-Bis(trifluoromethyl)benzoyl]-2-(1H-indol-3-yl-methyl)-4-(4-fluoro-trans-cinnamoyl)piperazine], the inhibition at 1 µg/mL was > 90%.

Take `O=C(CCc1ccccc1)N1CCN(C(=O)c2cc(C(F)(F)F)cc(C(F)(F)F)c2)[C@H](Cc2ccccc2)C1` [Example 17-4, (2R)-2-Benzyl-1-[3,5-bis(trifluoromethyl)benzoyl]-4-(3-phenylpropionyl)piperazine]: the inhibition at 1 µg/mL was > 90%. On the same count and under the same terms, the value for `O=C(CCCc1ccccc1)N1CCN(C(=O)c2cc(C(F)(F)F)cc(C(F)(F)F)c2)[C@H](Cc2ccccc2)C1` [Example 17-5, (2R)-2-Benzyl-1-[3,5-bis(trifluoromethyl)benzoyl]-4-(4-phenylbutyryl)piperazine] was > 90%. On the same count and under the same terms, the value for `O=C(CCc1c[nH]c2ccccc12)N1CCN(C(=O)c2cc(C(F)(F)F)cc(C(F)(F)F)c2)[C@H](Cc2ccccc2)C1` [Example 17-10, (2R)-2-Benzyl-1-[3,5-bis(trifluoromethyl)benzoyl]-4-[3-(1H-indol-3-yl)propionyl]piperazine] was > 90%. For `O=C(CCCc1c[nH]c2ccccc12)N1CCN(C(=O)c2cc(C(F)(F)F)cc(C(F)(F)F)c2)[C@H](Cc2ccccc2)C1` [Example 17-11, (2R)-2-Benzyl-1-[3,5-bis(trifluoromethyl)benzoyl]-4-[4-(1H-indol-3-yl)butyryl]piperazine], the inhibition at 1 µg/mL was > 90%. Same read-out and setting: the value for `O=C(/C=C/c1ccc([N+](=O)[O-])cc1)N1CCN(C(=O)c2cc(C(F)(F)F)cc(C(F)(F)F)c2)[C@H](Cc2ccccc2)C1` [Example 17-24, (2R)-2-Benzyl-1-[3,5-bis(trifluoromethyl)benzoyl]-4-(4-nitro-trans-cinnamoyl)piperazine] was > 90%; that for `CN(C)C(=O)N1CCN(C(=O)c2cc(C(F)(F)F)cc(C(F)(F)F)c2)[C@H](Cc2c[nH]c3ccccc23)C1` [Example 19-1, (2R)-1-[3,5-Bis(trifluoromethyl)benzoyl]-2-(1H-indol-3-yl-methyl) -4-(N,N-dimethylaminocarbonyl)piperazine] was > 90%. As to `CN(C)C(=O)N1CCN(C(=O)c2cc(C(F)(F)F)cc(C(F)(F)F)c2)[C@H](Cc2ccccc2)C1` [Example 19-4, (2R)-2-Benzyl-1-[3,5-bis(trifluoromethyl)benzoyl]-4-(N,N-dimethylcarbamoyl)piperazine], the inhibition at 1 µg/mL was > 90%.

Take `CC(=O)N1CCN(C(=O)c2cc(C(F)(F)F)cc(C(F)(F)F)c2)[C@H](Cc2ccc(C)c(C)c2)C1` [Example 19-10, (2R)-4-Acetyl-1-[3,5-bis(trifluoromethyl)benzoyl]-2-(3,4-dimethylbenzyl)piperazine]: the inhibition at 1 µg/mL is > 90%. For the compound `CN(C)CC(=O)N1CCN(C(=O)c2cc(C(F)(F)F)cc(C(F)(F)F)c2)[C@H](Cc2c[nH]c3ccccc23)C1` [Example 24-4, (2R)-1-[3,5-Bis(trifluoromethyl)benzoyl]-2-(1H-indol-3-yl-methyl)-4-[2-(N,N-dimethylamino)acetyl]-piperazine hydrochloride], the inhibition at 1 µg/mL is > 90%.

Turning to `Cc1ccc(C[C@@H]2CNCCN2C(=O)c2cc(C(F)(F)F)cc(C(F)(F)F)c2)cc1C` [Example 24-8, (2R)-1-[3,5-Bis(trifluoromethyl)benzoyl]-2-(3,4-dimethylbenzyl) piperazine hydrochloride], the inhibition at 1 µg/mL is > 90%.

In another assay the target is T2, h-NK1 receptors (Homo sapiens, UniProt P25103).
T2 construct: expressed in transfected cells; host or cells: CHO cells
T2 sequence (P25103 whole entry): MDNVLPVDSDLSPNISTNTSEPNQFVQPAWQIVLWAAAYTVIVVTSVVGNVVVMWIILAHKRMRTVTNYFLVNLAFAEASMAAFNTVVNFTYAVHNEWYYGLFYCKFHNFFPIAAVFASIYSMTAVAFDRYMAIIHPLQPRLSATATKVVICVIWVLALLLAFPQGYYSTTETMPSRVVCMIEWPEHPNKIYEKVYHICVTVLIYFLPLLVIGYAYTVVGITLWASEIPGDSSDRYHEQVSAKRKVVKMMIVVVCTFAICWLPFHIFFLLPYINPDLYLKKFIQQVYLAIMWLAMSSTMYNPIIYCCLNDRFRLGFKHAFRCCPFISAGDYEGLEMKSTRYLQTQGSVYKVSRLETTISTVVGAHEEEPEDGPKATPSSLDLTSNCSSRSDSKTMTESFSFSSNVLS
Nature of the assay: ^125 I-BH-Substance P binding to h-NK1 receptors. To be noted: at the concentration of 0.1 μg/ml; CHO cell membranes expressing h-NK1 receptors; read-out: inhibition rate of ^125 I-BH-Substance P binding to h-NK1 receptors. The procedure:
^125 I-BH-Substance P Binding to h-NK1 Receptors Test Method
^125 I-BH-Substance P Binding to h-NK1 Receptors
(a) Crude CHO cell membrane preparation
CHO cells permanently expressing h-NK1 receptors were harvested and homogenized with a Dounce homogenizer at 4° C. in a buffer (0.25M sucrose, 25 mM Tris-HCl pH 7.4, 10 mM MgCl2, 1 mM EDTA, 5 μg/ml p-APMSF). The homogenate was centrifuged (500×g, 10 minutes), and the pellet was resuspended in the same buffer, homogenized, and centrifuged. The two supernatants were combined and centrifuged (100,000×g, 1 hour). The crude cell membranes thus isolated were resuspended in buffer (25 mM Tris-HCl pH 7.4, 10 mM MgCl2, 1 mM EDTA, 5 μg/ml p-APMSF) and stored at -80° C. until use.
(b) ^125 I-BH-Substance P binding to preparation membrane Cell membranes (6 μg/ml) were incubated with ^125 I-BH-Substance P (0.1 nM) with or without test compounds in 0.25 ml of Medium 2(50 mM Tris-HCl pH 7.4, 5 mM MnCl2, 20 μg/ml chymostatin, 40 μg/ml bacitracin, 4 μg/ml leupeptin, 5 μg/ml p-APMSF, 200 μg/ml BSA) at 22° C. for 90 minutes. At the end of the incubation period, the content was quickly filtered over a Wahtman GF/C glass filter (pretreated with 0.1% polyethylene imine for 3 hours prior to use) under aspiration. Each of the filters was then washed four times with 5 ml of buffer (50 mM Tris-HCl pH 7.4, 5 mM MnCl2). The radioactivity was counted by using Auto Gamma counter (Packerd RIASTAR 5420A). All data presented are specific binding defined as that displaceable by 3 μM unlabeled Substance P.
`O=C(/C=C/C1CCCCC1)N1CCN(C(=O)c2cc(C(F)(F)F)cc(C(F)(F)F)c2)[C@H](Cc2c[nH]c3ccccc23)C1` [Example 17-50, (2R)-1-[3,5-Bis(trifluoromethyl)benzoyl]-4-[(3-cyclo-hexyl)-trans-acryloyl]-2-(1H-indol-3-yl-methyl)-piperazine]: the inhibition at 0.1 µg/mL is > 90%. Take `O=C(C1CC1)N1CCN(C(=O)c2cc(C(F)(F)F)cc(C(F)(F)F)c2)[C@H](Cc2c[nH]c3ccccc23)C1` [Example 17-56, (2R)-1-[3,5-Bis(trifluoromethyl)benzoyl]-4-(cyclo-propylcarbonyl)-2-(1H-indol-3-yl-methyl)piperazine]: the inhibition at 0.1 µg/mL was > 90%. Still for that read-out and setting: the value for `O=C(/C=C/c1cccnc1)N1CCN(C(=O)c2cc(C(F)(F)F)cc(C(F)(F)F)c2)[C@H](Cc2c[nH]c3ccccc23)C1` [Example 17-57, (2R)-1-[3,5-Bis(trifluoromethyl)benzoyl]-2-(1H-indol-3-yl-methyl)-4-[3-(3-pyridyl)-trans-acryloyl]-piperazine] was > 90%; that for `Cc1ccc(C[C@@H]2CN(C(=O)/C=C/C3CCCCC3)CCN2C(=O)c2cc(C(F)(F)F)cc(C(F)(F)F)c2)cc1C` [Example 17-60, (2R)-1-[3,5-Bis(trifluoromethyl)benzoyl]-2-(3,4-dimethylbenzyl)-4-(3-cyclohexyl-trans-acryloyl)piperazine] was > 90%; that for `CS(=O)(=O)N1CCN(C(=O)c2cc(C(F)(F)F)cc(C(F)(F)F)c2)[C@H](Cc2c[nH]c3ccccc23)C1` [Example 19-13, (2R)-1-[3,5-Bis(trifluoromethyl)benzoyl]-2-(1H-indol-3-yl-methyl)-4-mesylpiperazine] was > 90%.

On to `CC(=O)Nc1nc(/C=C/C(=O)N2CCN(C(=O)c3cc(C(F)(F)F)cc(C(F)(F)F)c3)[C@H](Cc3c[nH]c4ccccc34)C2)cs1` [Example 21-3, (2R)-4-[3-[2-(Acetylamino)thiazol-4-yl]-trans-acryloyl]-1-[3,5-bis(trifluoromethyl)benzoyl]-2-(1H-indol-3-yl-methyl)piperazine], for which the inhibition at 0.1 µg/mL is > 90%. On the same count and under the same terms, the value for `NC(=O)CN1CCN(C(=O)c2cc(C(F)(F)F)cc(C(F)(F)F)c2)[C@H](Cc2c[nH]c3ccccc23)C1` [Example 25-2, (^2 R)-1-[3,5-Bis(trifluoromethyl)benzoyl]-2-(1H-indol-3-yl-methyl)-4-(carbamoylmethyl)piperazine] was > 90%; that for `CNC(=O)CN1CCN(C(=O)c2cc(C(F)(F)F)cc(C(F)(F)F)c2)[C@H](Cc2c[nH]c3ccccc23)C1` [Example 26, (2R)-1-[3,5-bis (trifluoromethyl)benzoyl]-2-(1H-indol-3-yl-methyl)-4-(N-methylcarbamoylmethyl)piperazine hydrochloride] was > 90%. On to `CN1CCN(NC(=O)CN2CCN(C(=O)c3cc(C(F)(F)F)cc(C(F)(F)F)c3)[C@H](Cc3c[nH]c4ccccc34)C2)CC1` [Example 77, (2R)-1-[3,5-bis(trifluoromethyl)benzoyl]-2-(1H-indol-3-ylmethyl)-4-[N-(4-methyl-1-piperazinyl)carbamoylmethyl]piperazine], for which the inhibition at 0.1 µg/mL is > 90%.

In the case of `CC(C)(C)C(=O)Nc1nc(CN2CCN(C(=O)c3cc(C(F)(F)F)cc(C(F)(F)F)c3)[C@H](Cc3c[nH]c4ccccc34)C2)cs1` [Example 79-4], the inhibition at 0.1 µg/mL was > 90%.

The inhibition is how much of the control response was suppressed.

(Values after US5883098A, “Piperazine derivatives” (Fujisawa Pharmaceutical Co., Ltd., priority 1993, dated 1999).)
